Entries after “also recorded” stand apart in the source; their conditions may differ.
Legend:
[1] = test system: ERK-1/2; assay: Western blot of ERK-1/2 phosphorylation in striatal neurons; type: cell-based, rat; conditions: after 10–30 min of SP stimulation; total ERK-1/2 unchanged
Method: (§1) For the transfected 293T cells, cells were washed with cold PBS after incubation with SP the time indicate and homogenized on lysis buffer (150 mM NaCl, 1% Triton X-100, 50 mM Tris HCL pH8.0). Cytoplasmic extracts were collected after 10 min centrifugation at 14,000 rcf. Total amount of protein was quantified by Bradford assay and electrophoresis of equal amounts of total protein was performed on SDS-polyacrylamide gels. Separated proteins were transferred to polyvinylidene fluoride membranes at 4° C. for Western blot analysis. Membranes were probed with a 1:1000 dilution of anti-ERK-1/2 or anti phospho-ERK-1/2 (BioSource). The blots were incubated in a horseradish peroxidase coupled secondary antibody for 1 h followed by enhanced chemiluminescence detection of the proteins with […]™ ECL detection (Amersham, Arlington Heights, Ill.). For striatal neurons, total ERK-1/2 was immunoprecipitated using superparamagnetic Microbeads conjugated to protein A, following manufacture's instructions (MACS, Miltenyi Biotec), and then developed by Western blot against either anti-ERK-1/2 or anti phospho-ERK-1/2.

[2] = test system: total cellular cAMP; assay: cAMP quantification in 293T cells overexpressing NK1R; type: cell-based, human; conditions: compared with 10 μM forskolin
Method: Total cellular cAMP was measured using the BiotrakBIOTRAK™ non-acetylation enzymeimmunoassay system (Amersham Phramacia Biotech), following manufacturer's instructions. Forskolin (Sigma) was added at 10 μM.

[3] = test system: cytochrome c release; conditions: cell-free system of apoptosis; cited from earlier work
[4] = test system: 293T cells transfected with NK1R; assay: SP-induced, NK1R-mediated cell death in 293T cells transfected with NK1R, trypan blue and staining; type: cell-based, human
Method: Human embryonic kidney 293T cells were grown as described in Example I. Transient transfection was performed using Superfect (Qiagen) as described by the manufacturer. Briefly, 2×10^5 cells/well were seeded into 35 mm wells 16 hr prior to transfection. Superfect:DNA complexes were added at a 5 μl:2 μg ratio for 3 hr; then the medium was replaced and after 24 hr SP was added. At 24–48 hr after addition of SP cell death was quantified as follows: the media containing floating cells were collected and centrifuged 10 min at 2000×g, the pellet was resuspended in PBS/trypan blue and the cells were counted using a hematocytometer. When other compounds were used, they were added at the same time as SP: zVAD.fmk or BAF was added at 50 μM and obtained from Enzyme System Products, Livermore, Calif.
Briefly, the method entailed cloning the full-length (1.2 kb) NK1R cDNA (Genbank Accession No. M31477) by RT-PCR from adult rat hippocampal RNA into the XbaI/EcoRI sites of the vector pcDNA3.1 (Invitrogen), using the following oligonucleotides: forward 5′[…] 3′ (SEQ ID NO:2); reverse 5′[…] 3′ (SEQ ID NO:3).
Cells were stained according to the manufacturer's instructions (Clontech). Briefly, cellswere washed with binding buffer and incubated with FITC-Annexin-V or EGFPAnnexin-V for 5–10 min and fixed with 4% paraformaldehyde.
Cells were fixed 10 min with 4% paraformaldehyde and stained according to the manufacturer's instructions (Promega).
The protein kinase inhibitors were added 30 min before SP exposure at the following concentrations: 10 μM Rp-8-Br-cAMPS (adenosin 3′,5′-cyclic monophosphorothioate, 8-bromo-, Rp-isomer, sodium salt) which is a PKA inhibitor; 50 nM Calphostin C, which is a PKC inhibitor; 10 μM PD 98059 which is a MAPKK (MEK) inhibitor. These compounds were obtained from Calbiochem. Viability was quantified by trypan blue staining of the total cell population.

[5] = test system: ERK-1/2; assay: Western blot of ERK-1/2 phosphorylation in 293T cells expressing NK1R; type: cell-based, human; conditions: 293T cells expressing the wild type NK1R, but not NK1Rd342
Method: as §1

[6] = test system: fibroblasts; assay: SP toxicity to fibroblasts; type: cell-based; conditions: extracellular SP

For “SP: eleven amino acid neurotransmitter of the tachykinin family, ligand of NK1R”, which “amount of phosphorylated ERK-1/2” value [1] is on record?
Its value is “increase”.

What about the “production of cAMP in response to SP” value [2] of the same substance?
Its value is “Neither the wild type nor the mutant NK1Rd342 overexpressed in 293T cells generated a significant amount of cAMP”.

And the cytochrome c release [3]?
The cytochrome c release was “can induce cytochrome c release”.

And the “sensitivity of NK1R-transfected 293T cells to SP” value [4]?
The value was “sensitive to SP at nanomolar concentrations”.

What about the “activation of ERK-1/2 by SP” value [5] of the same substance?
The value was “activation of ERK-1/2”.

What about the toxicity to fibroblasts [6] of the same substance?
The toxicity to fibroblasts was “resistant to micromolar concentrations; also recorded: not toxic”.

— US6994981B2, “Modulators of paraptosis and related methods” (The Buck Institute, priority 2002, dated 2006)
